Data published in US8034799B2, “Preventing and/or treating cardiovascular disease and/or associated heart failure” (Philera New Zealand Limited, priority 2002, dated 2011).
Read-outs that look alike come from different tables or passages of the source.

Assays:
diabetic rats = conditions: treatment of diabetic rats; cited from earlier work
[1] = test system: diabetic (STZ) and nondiabetic male Wistar rats
Source text: (§1) Nondiabetic animals received an equivalent volume of saline.
(§2) All animals were fasted overnight prior to surgery but continued to have ad libitum access to deionized water. […] The femoral artery and vein were cannulated with a solid-state blood pressure transducer (Mikrotip™ 1.4F, Millar Instruments, Texas, USA) and a saline filled PE 50 catheter respectively. The ureters were exposed via a midline abdominal incision, cannulated using polyethylene catheters (external diameter 0.9 mm, internal diameter 0.5 mm) and the wound sutured closed. The trachea was cannulated and the animal ventilated at 70-80 breaths·min^−1 with air supplemented with O2 (Pressure Controlled Ventilator, Kent Scientific, Connecticut, USA). The respiratory rate and end-tidal pressure (10-15 cm H2O) were adjusted to maintain end-tidal CO2 at 35-40 mm Hg (SC-300 CO2 Monitor, Pryon Corporation, Wisconsin, USA). Body temperature was maintained at 37° C. throughout surgery and the experiment by a heating pad. Estimated fluid loss was replaced with intravenous administration of 154 mmol·l^−1 NaCl solution at a rate of 5 ml·kg^−1·h^−1.
(§3) Following surgery and a 20 min stabilization period, the experimental protocol was started. Trientine was administered intravenously over 60 s in hourly doses of increasing concentration (0.1, 1.0, 10 and 100 mg·kg^−1 in 75 μl saline followed by 125 μl saline flush). Control animals received an equivalent volume of saline. Urine was collected in 15 min aliquots throughout the experiment in pre-weighed polyethylene epindorph tubes. At the end of the experiment a terminal blood sample was taken by cardiac puncture and the separated serum stored at −80° C. until future analysis. Hearts were removed through a rapid mid-sternal thoracotomy and processed as described below.
Mean arterial pressure (MAP), heart rate (HR, derived from the MAP waveform) oxygen saturation (Nonin 8600V Pulse Oximeter, Nonin Medical Inc., Minnesota, USA) and core body temperature, were all continuously monitored throughout the experiment using a PowerLab/16s data acquisition module (AD Instruments, Australia).

diabetic Wistar rats = conditions: six months of treatment
[2] = test system: diabetic (STZ) and nondiabetic male Wistar rats; remark: listed apart in the source
Source text: as §1, §2, §3
Instrumentation: A Perkin Elmer (PE) Model 3100 Atomic Absorption Spectrophotometer equipped with a PE HGA-600 Graphite Furnace and PE AS-60 Furnace Autosampler was used for Cu and Fe determinations in urine. Deuterium background correction was employed. A Cu or Fe hollow-cathode lamp (Perkin Elmer Corporation) was used and operated at either 10 W (Cu) or 15 W (Fe). The 324.8 nm atomic line was used for Cu and the 248.3 nm atomic line for Fe. The slit width for both Cu and Fe was 0.7 nm. Pyrolytically coated graphite tubes were used for all analyses. The injection volume was 20 μL. A typical graphite furnace temperature program is shown below.
Urine: Urine was collected in pre-weighed 1.5 ml micro test tubes (eppendorf). After reweighing, the urine specimens were centrifuged and the supernatant diluted 25:1 with 0.02 M 69% Aristar grade HNO3. The sample was stored at 4° C. prior to GF-AAS analysis. If it was necessary to store a sample for a period in excess of 2 weeks, it was frozen and kept at −20° C.
Statistical analyses were as follows: All values are expressed as mean±SEM and P values <0.05 were considered statistically significant. Student's unpaired t-test was initially used to test for weight and glucose differences between the diabetic and control groups.

[3] = test system: STZ diabetic and normal Wistar rats; conditions: for Heart weight / Heart weight (g)/BW (g) / Left Ventricular wall thickness / Left Ventricular wall thickness per BW: mean ± SD
[4] = test system: diabetic (STZ) and nondiabetic male Wistar rats; conditions: for Renal clearance Cu / Renal clearance Fe / Serum Cu / Serum Fe: trientine; for Renal clearance Cu / Renal clearance Fe: final hour of experiment; for Serum Cu / Serum Fe: terminal blood sample
Method: as §3
Serum: Terminal blood samples were centrifuged and serum treated and stored as per urine until analysis. From the trace metal content of serum from the terminal blood sample and urine collected over the final hour of the experiment, renal clearance was calculated using the following equation: renal clearance of trace metal=(a) the concentration of metal in urine (μg·μl^−1) times (b) the rate of urine flow (μl·min^−1), divided by (c) the concentration of metal in serum (μg·μl^−1)

[5] = test system: diabetic (STZ) and nondiabetic male Wistar rats; conditions: for Cu content of heart tissue / Fe content of heart tissue: trientine treated
Method: as §3
Cu, Fe and Zn in tissue digests were also determined at Hill Laboratories (Hamilton, New Zealand) using either a PE Sciex Elan-6000 or PE Sciex Elan-6100 DRC ICP-MS.
Heart: Following removal from the animal, the heart was cleaned of excess tissue, rinsed in buffer to remove excess blood, blotted dry and a wet ventricular weight recorded. Using titanium instruments a segment of left ventricular muscle was dissected and placed in a pre-weighed 5.0 ml polystyrene tube. The sample was freeze-dried overnight to constant weight before 0.45 ml of 69% Aristar grade HNO3 was added. The sample tube was heated in a water bath at 65° C. for 60 minutes. The sample was brought to 4.5 ml with Milli-Q H2O. The resulting solution was diluted 2:1 in order to reduce the HNO3 concentration below the maximum permitted for ICP-MS analysis.

[6] = test system: STZ diabetic and normal Wistar rats
Method: On the last day of the experiment, animals were anesthetized (5% halothane and 2 L·min^−1 O2), and heparin (500 IU·kg^−1) (Weddel Pharmaceutical Ltd., London) administered intravenously via tail vein. […] Hearts were then placed in the isolated perfused working heart apparatus.
The aortic root of the heart was immediately ligated to the aortic cannula of the perfusion apparatus. Retrograde (Langendorff) perfusion at a hydrostatic pressure of 100 cm H2O and at 37° C. was established and continued for 5 min while cannulation of the left atrium via the pulmonary vein was completed. The non-working (Langendorff) preparation was then converted to the working heart model by switching the supply of perfusate buffer from the aorta to the left atrium at a filling pressure of 10 cm H2O. […] The perfusion solution was Krebs-Henseleit bicarbonate buffer (mM: KCl 4.7, CaCl2 2.3, KH2PO4 1.2, MgSO4 1.2, NaCl 118, and NaHCO3 25), pH 7.4 containing 11 mM glucose and it was continuously gassed with 95% O2:5% CO2. The buffer was also continuously filtered in-line (initial 8 μm, following 0.4 μm cellulose acetate filters; Sartorius, Germany). The temperature of the entire perfusion apparatus was maintained by water jackets and buffer temperature was continuously monitored and adjusted to maintain hearts at 37° C. throughout perfusion.
A modified 24 g plastic intravenous cannula (Becton Dickson, Utah, USA) was inserted into the left ventricle via the apex of the heart using the normal introducer-needle. This cannula was subsequently attached to a SP844 piezo-electric pressure transducer (AD Instruments) to continuously monitor left ventricular pressure. Aortic pressure was continuously monitored through a side arm of the aortic cannula with a pressure transducer (Statham Model P23XL, Gould Inc., CA, USA). The heart was paced (Digitimer Ltd, Heredfordshire, England) at a rate of 300 bpm by means of electrodes attached to the aortic and pulmonary vein cannulae using supra-threshold voltages with pulses of 5-ms duration from the square wave generator.

[7] = STZ/D7 (diabetic, trientine weeks 7-13)
[8] = Sham/D7 (non-diabetic, trientine weeks 7-13)
[9] = diabetic and nondiabetic animals

## N=C(N)NN [aminoguanidine]
Diabetic rats
  aortic impedance: decreases
  carotid artery compliance: increased
  myocardial compliance: prevented the decreased myocardial compliance

## NCCNCCNCCN [trientine, N,N′-Bis(2-aminoethyl)-1,2-ethanedi-amine]
[1]; after acute administration, 0.1-100 mg·kg^−1 i.v.
  adverse cardiovascular effects: no adverse cardiovascular effects
[1]; all animals throughout the experiment
  body temperature and oxygen saturation: remained stable
[1]; highest dose (100 mg·kg^−1 i.v.)
  time for MAP to return to pre-dose levels: ≤ 10 min
[1]; highest dose (100 mg·kg^−1 i.v.), for the 2 min following administration
  maximum decrease in MAP: 19±4 mm Hg
[1]; i.v. hourly increasing doses, all doses except the highest, diabetic and nondiabetic rats
  MAP and HR during infusion: no effect
Diabetic Wistar rats
  protection of hearts from development of diabetic damage (cardiomyopathy) as judged by histology: appears to protect
[2]; all dose levels
  copper excretion versus saline, mixed linear model: significantly higher excretion of copper
[2]; animals receiving trientine
  greater iron excretion per gram of body weight in diabetic than nondiabetic animals: not evident
[2]; both diabetic and nondiabetic animals
  total iron excretion versus saline: not different
[2]; both nondiabetic and diabetic animals
  total copper excreted over the entire duration of the experiment versus saline controls: significantly increased
[2]; diabetic animals, 100 mg·kg^−1 i.v.
  increase of urine excretion versus equivalent volume of saline: not seen
[2]; diabetic animals, at most doses
  iron excretion (μg), saline versus drug: greater in animals administered saline than in those administered drug
[2]; dose levels of 1.0 mg·kg^−1 and above
  diabetes x drug interaction effect on copper excretion, mixed linear model: significant
[2]; entire experiment
  total copper per gram of body weight, diabetic versus nondiabetic animals receiving drug: excreted more total copper per gram of body weight
[2]; in response to each dose of drug
  copper excretion per gram of body weight, diabetic versus nondiabetic animals: significantly greater copper excretion per gram of body weight
[2]; in response to trientine
  greater total iron excretion per gram of body weight in diabetic than nondiabetic animals: not seen
[2]; nondiabetic animals, 100 mg·kg^−1 i.v.
  urine excretion versus equivalent volume of saline: increased urine excretion
[3]; [7]
  Heart weight: 1.18 ± 0.24 g
  Heart weight (g)/BW (g): 0.0041 ± 0.0005^
  Left Ventricular wall thickness: 3.79 ± 0.52 mm
  Left Ventricular wall thickness per BW: 0.0127 ± 0.0027^ (mm)/(g)
[3]; [8]
  Heart weight: 1.58 ± 0.05 g
  Heart weight (g)/BW (g): 0.0028 ± 0.0001
  Left Ventricular wall thickness: 4.03 ± 0.1 mm
  Left Ventricular wall thickness per BW: 0.0072 ± 0.0003 (mm)/(g)
[3]; diabetic animals, trientine weeks 7-13
  heart:body weight ratio, treated versus untreated diabetic animals: small but significant improvement
[3]; did not reach significance
  ventricular wall thickness:bodyweight ratio, treated versus non-treated diabetics: trend toward improved
[3]; either treated group (STZ/D7, Sham/D7), p=ns
  blood glucose profile, treated versus untreated comparison group: no difference
[4]; [9]
  serum content or renal clearance of iron, effect of drug: no effect
  serum copper content, drug versus saline: no significant difference
[4]; diabetic animals
  renal clearance of copper, drug versus saline: significant increase
[4]; diabetic, n = 6
  Renal clearance Cu: *28.5 ± 4.8 μl · min^−1
  Renal clearance Fe: 0.25 ± 0.07 µL/min
  Serum Cu: 7.56 ± 0.06 μg · μl^−1 × 10^−4
  Serum Fe: 35.7 ± 7.98 μg · μl^−1 × 10^−4
[4]; nondiabetic animals (P=0.056)
  increase in renal clearance of copper, drug versus saline: not statistically significant
[4]; nondiabetic, n = 4
  Renal clearance Cu: 19.9 ± 6.4 µL/min
  Renal clearance Fe: 0.46 ± 0.22 µL/min
  Serum Cu: 7.11 ± 0.41 μg · μl^−1 × 10^−4
  Serum Fe: 33.6 ± 1.62 μg · μl^−1 × 10^−4
[5]; acute i.v. administration
  effect of drug on cardiac content of iron and copper: nor any effect of drug
[5]; animals receiving saline or trientine
  content of copper in cardiac tissue, diabetic versus nondiabetic animals: no significant difference
[5]; diabetic
  Cu content of heart tissue: 24.7 ± 1.5 μg · g^−1 dry tissue
  Fe content of heart tissue: 186 ± 46 μg · g^−1 dry tissue
[5]; nondiabetic
  Cu content of heart tissue: 27.1 ± 1.0 μg · g^−1 dry tissue
  Fe content of heart tissue: 235 ± 39 μg · g^−1 dry tissue
[6]; STZ/D7 (diabetic, trientine weeks 7-13), afterload 55.9 mmHg
  Percentage functioning at each afterload: 100%
[6]; STZ/D7 (diabetic, trientine weeks 7-13, N 8), afterload 55.9 mmHg
  Number surviving (aortic flow >0 mls/min): 8
[6]; STZ/D7, afterload 61.8 mmHg
  Number surviving (aortic flow >0 mls/min): 8
  Percentage functioning at each afterload: 100%
[6]; STZ/D7, afterload 67.7 mmHg
  Number surviving (aortic flow >0 mls/min): 8
  Percentage functioning at each afterload: 100%
[6]; STZ/D7, afterload 71.4 mmHg
  Number surviving (aortic flow >0 mls/min): 8
  Percentage functioning at each afterload: 100%
[6]; STZ/D7, afterload 77.2 mmHg
  Number surviving (aortic flow >0 mls/min): 8
  Percentage functioning at each afterload: 100%
[6]; STZ/D7, afterload 83.1 mmHg
  Number surviving (aortic flow >0 mls/min): 8
  Percentage functioning at each afterload: 100%
[6]; STZ/D7, afterload 88.3 mmHg
  Number surviving (aortic flow >0 mls/min): 7
  Percentage functioning at each afterload: 88%
[6]; STZ/D7, afterload 94.9 mmHg
  Number surviving (aortic flow >0 mls/min): 6
  Percentage functioning at each afterload: 75%
[6]; STZ/D7, afterload 100.8 mmHg
  Number surviving (aortic flow >0 mls/min): 5
  Percentage functioning at each afterload: 63%
[6]; STZ/D7, afterload 106.7 mmHg
  Number surviving (aortic flow >0 mls/min): 1
  Percentage functioning at each afterload: 13%
[6]; Sham/D7 (non-diabetic, trientine weeks 7-13), afterload 55.9 mmHg
  Percentage functioning at each afterload: 100%
[6]; Sham/D7 (non-diabetic, trientine weeks 7-13, N 11), afterload 55.9 mmHg
  Number surviving (aortic flow >0 mls/min): 11
[6]; Sham/D7, afterload 61.8 mmHg
  Number surviving (aortic flow >0 mls/min): 11
  Percentage functioning at each afterload: 100%
[6]; Sham/D7, afterload 67.7 mmHg
  Number surviving (aortic flow >0 mls/min): 11
  Percentage functioning at each afterload: 100%
[6]; Sham/D7, afterload 71.4 mmHg
  Number surviving (aortic flow >0 mls/min): 11
  Percentage functioning at each afterload: 100%
[6]; Sham/D7, afterload 77.2 mmHg
  Number surviving (aortic flow >0 mls/min): 11
  Percentage functioning at each afterload: 100%
[6]; Sham/D7, afterload 83.1 mmHg
  Number surviving (aortic flow >0 mls/min): 11
  Percentage functioning at each afterload: 100%
[6]; Sham/D7, afterload 88.3 mmHg
  Number surviving (aortic flow >0 mls/min): 11
  Percentage functioning at each afterload: 100%
[6]; Sham/D7, afterload 94.9 mmHg
  Number surviving (aortic flow >0 mls/min): 11
  Percentage functioning at each afterload: 100%
[6]; Sham/D7, afterload 100.8 mmHg
  Number surviving (aortic flow >0 mls/min): 11
  Percentage functioning at each afterload: 100%
[6]; Sham/D7, afterload 106.7 mmHg
  Number surviving (aortic flow >0 mls/min): 9
  Percentage functioning at each afterload: 82%
[6]; drug treated diabetic group, pre-load increased (5-20 cm H2O), after-load constant
  cardiac output: restored to Sham values
[6]; drug treated diabetic group, pre-load increased, after-load constant
  aortic and absolute coronary flows: improved
[6]; drug treated versus untreated diabetic group
  indicators for ventricular contraction and relaxation (+dP/dt, −dP/dt): significantly improved
[6]; drug treated versus untreated diabetic group, constant pre-load
  heart's ability to function at higher after-loads: greatly improved
[6]; drug treatment of normal animals (Sham/D7)
  adverse effects on cardiac performance: no adverse effects
[6]; oral trientine for 7 weeks, Wistar rats with established diabetes of 6 weeks duration
  cardiac function overall: global improvement in cardiac function
[6]; when 50% of the untreated diabetic hearts had failed
  trientine treated diabetic hearts still functioning: about 90%
